Test results reported in PubChem BioAssay AID651836 (Sanford-Burnham Center for Chemical Genomics, 2012).
Where “and” joins values, the source holds several entries; their conditions need not be identical. Equal values may be shown once. Calls of active or inactive are those of the source. How the calls were made is not given here.

System: Gli-SUFU luciferase reporter cells, luminescence
Test: analogs blocking Gli reporter signaling – cell-based, luciferase luminescence, set 1, SAR follow-up (AID 651836)

IC50 | Structure (SMILES)
> 11.7 µM (inactive) | O=C(Nc1cc(N2CCCCC2)ncn1)c1cccc(F)c1
> 11.7 µM (inactive) | O=C(Nc1cc(N2CCNCC2)ncn1)c1ccccc1
> 11.7 µM (inactive) | O=C(Nc1cc(N2CCCCC2)ncn1)c1cccs1
> 11.7 µM (inactive) | CC(C)Nc1cc(NC(=O)c2ccccc2)ncn1
> 11.7 µM (inactive) | COc1cc(OC)cc(C(=O)Nc2cc(N3CCCCC3)ncn2)c1
> 11.7 µM (inactive) | CN(C)c1cc(NC(=O)c2cccc(F)c2)ncn1
> 11.7 µM (inactive) | CCCCNc1cc(NC(=O)c2ccccc2)ncn1
> 11.7 µM (inactive) | O=C(Nc1cc(N2CCCCC2)ncn1)c1ccc(Cl)cc1
> 11.7 µM (inactive) | CC1CCCCN1c1cc(NC(=O)c2ccccc2)ncn1 (stereo unspecified)
> 11.7 µM (inactive) | O=C(Nc1cc(N2CCCCC2)ncn1)c1ccc2ccccc2c1
> 11.7 µM (inactive) | O=C(Nc1cc(NCC2CCCO2)ncn1)c1ccccc1 (stereo unspecified)
> 11.7 µM (inactive) | CC(C)CNc1cc(NC(=O)c2ccccc2)ncn1
> 11.7 µM (inactive) | COc1cc(OC)cc(C(=O)Nc2cc(N3CCCC3)ncn2)c1
0.0378 µM | CCOc1ccc(-c2nc(CSCC(=O)NC3CC3)c(C)o2)cc1
> 11.7 µM (inactive) | CCN(CC)c1cc(NC(=O)c2cccc(C#N)c2)ncn1
> 11.7 µM (inactive) | CN1CCN(c2cc(NC(=O)c3ccccc3)ncn2)CC1
> 11.7 µM (inactive) | Cc1ccc(C(=O)Nc2cc(N3CCCCC3)ncn2)cc1
> 11.7 µM (inactive) | CC(C)(C)Nc1cc(NC(=O)c2ccccc2)ncn1
> 11.7 µM (inactive) | CC(C)(C)OC(=O)N1CCN(c2cc(NC(=O)c3ccccc3)ncn2)CC1

IC50 | Structure (SMILES)
> 11.7 µM (inactive) | CCN(CC)c1cc(NC(=O)c2cc(OC)cc(OC)c2)ncn1
0.0741 µM | O=C(Nc1cc(N2CCCCCC2)ncn1)c1ccccc1
0.0566 µM and 0.0242 µM | O=C(Nc1cc(N2CCCCC2)ncn1)c1ccccc1
> 11.7 µM (inactive) | CCC(C)Nc1cc(NC(=O)c2ccccc2)ncn1 (stereo unspecified)
> 11.7 µM (inactive) | CCN(CC)c1cc(NC(=O)c2ccc(Br)o2)ncn1
> 11.7 µM (inactive) | CCN(CC)c1cc(NC(=O)c2cccc(F)c2)ncn1
> 11.7 µM (inactive) | Cc1nc(NC(=O)c2ccccc2)cc(N(C)C)n1
> 11.7 µM (inactive) | O=C(Nc1cc(N2CCCCC2)ncn1)c1ccc(Br)o1
0.556 µM | CCN(CC)c1cc(NC(=O)c2ccccc2F)ncn1
> 11.7 µM (inactive) | N#Cc1ccc(C(=O)Nc2cc(N3CCCCC3)ncn2)cc1
> 11.7 µM (inactive) | CCCCN(C)c1cc(NC(=O)c2ccccc2)ncn1
> 11.7 µM (inactive) | CC(C)CNc1cc(NC(=O)c2cccc(F)c2)ncn1
> 11.7 µM (inactive) | O=C(Nc1cc(N2CCCCC2)ncn1)c1ccco1
> 11.7 µM (inactive) | CN(C)c1cc(NC(=O)c2ccccc2F)ncn1
> 11.7 µM (inactive) | O=C(Nc1cc(N2CCCCC2)ncn1)c1ccccc1C(F)(F)F
> 11.7 µM (inactive) | O=C(Nc1cc(N2CCCC2)ncn1)c1ccccc1
> 11.7 µM (inactive) | O=C(Nc1cc(N2CCCCC2)ncn1)c1ccsc1
> 11.7 µM (inactive) | O=C(Nc1cc(N2CCCCC2)ncn1)c1cccc2ccccc12
> 11.7 µM (inactive) | N#Cc1cccc(C(=O)Nc2cc(N3CCCCC3)ncn2)c1

IC50 | Structure (SMILES)
> 11.7 µM (inactive) | CN(C)c1cc(NC(=O)c2cccc(C#N)c2)ncn1
> 11.7 µM (inactive) | O=C(Nc1cc(N2CCCCC2)ncn1)c1cc2ccccc2s1
> 11.7 µM (inactive) | O=C(Nc1cc(N2CCCC2)ncn1)c1ccccc1F
> 11.7 µM (inactive) | CCN(CC)c1cc(NC(=O)c2ccccc2)ncn1
> 11.7 µM (inactive) | O=C(Nc1cc(N2CCOCC2)ncn1)c1ccccc1
0.636 µM | CCOc1ccc(S(=O)(=O)NCc2ccncc2)cc1NC(=O)c1ccccc1
> 11.7 µM (inactive) | Cc1nc(NC(=O)c2ccccc2)cc(N2CCCC2)n1
> 11.7 µM (inactive) | CCN(CC)c1cc(NC(=O)c2ccccc2)nc(C)n1
> 11.7 µM (inactive) | COc1cccc(C(=O)Nc2cc(N3CCCCC3)ncn2)c1
> 11.7 µM (inactive) | COc1cc(OC)cc(C(=O)Nc2cc(N(C)C)ncn2)c1
> 11.7 µM (inactive) | COc1cc(OC)cc(C(=O)Nc2cc(Nc3cccc(Cl)c3)ncn2)c1
> 11.7 µM (inactive) | O=C(Nc1cc(N2CCSCC2)ncn1)c1ccccc1
> 11.7 µM (inactive) | Cc1nc(NC(=O)c2ccccc2)cc(N2CCCCC2)n1
> 11.7 µM (inactive) | CN(C)c1cc(NC(=O)c2ccccc2)ncn1
> 11.7 µM (inactive) | O=C(Nc1cc(N2CCCCC2)ncn1)c1ccc(C(F)(F)F)cc1
0.037 µM | CC1CCN(c2cc(NC(=O)c3ccccc3)ncn2)CC1
0.176 µM | O=C(Nc1cc(N2CCCCC2)ncn1)c1ccccc1F
> 11.7 µM (inactive) | O=C(Nc1cc(N2CCCC2)ncn1)c1cccc(F)c1
